Experiments:
PIM2 (human) [1] = target: PIM2 (human) (UniProt Q9P1W9); test: SelectScreen, TR FRET
PIM1 (human) [2] = target: PIM1 (human) (UniProt P11309); test: SelectScreen, TR FRET
DAPK1 (human) = DAPK1 (human) (UniProt P53355); test: KINOMEscan competition binding; conditions: compound 10.0 µM
[3] = tested on: RET (human), P07949 [V804M]; test: KINOMEscan competition binding; conditions: compound 10.0 µM
CAMKK1 (human) = CAMKK1 (human) (UniProt Q8N5S9); test: KINOMEscan competition binding; conditions: compound 10.0 µM
STK17A (human) = STK17A (human) (UniProt Q9UEE5); test: KINOMEscan competition binding; conditions: compound 10.0 µM
RIOK2 (human) = RIOK2 (human) (UniProt Q9BVS4); test: KINOMEscan competition binding; conditions: compound 10.0 µM
RIPK2 (human) = RIPK2 (human) (UniProt O43353); test: KINOMEscan competition binding; conditions: compound 10.0 µM
IRAK3 (human) = IRAK3 (human) (UniProt Q9Y616); test: KINOMEscan competition binding; conditions: compound 10.0 µM
PLK3 (human) = PLK3 (human) (UniProt Q9H4B4); test: KINOMEscan competition binding; conditions: compound 10.0 µM
ACVR2B (human) = ACVR2B (human) (UniProt Q13705); test: KINOMEscan competition binding; conditions: compound 10.0 µM
GAK (human) = GAK (human) (UniProt O14976); test: KINOMEscan competition binding; conditions: compound 10.0 µM
MINK1 (human) = MINK1 (human) (UniProt Q8N4C8); test: KINOMEscan competition binding; conditions: compound 10.0 µM
MAP2K4 (human) = MAP2K4 (human) (UniProt P45985); test: KINOMEscan competition binding; conditions: compound 10.0 µM
[4] = tested on: FLT3 (human), P36888 [ITD]; test: KINOMEscan competition binding; conditions: compound 10.0 µM
[5] = tested on: FLT3 (human), P36888 [D835Y]; test: KINOMEscan competition binding; conditions: compound 10.0 µM
HIPK1 (human) = HIPK1 (human) (UniProt Q86Z02); test: KINOMEscan competition binding; conditions: compound 10.0 µM
RIOK1 (human) = RIOK1 (human) (UniProt Q9BRS2); test: KINOMEscan competition binding; conditions: compound 10.0 µM
SRPK3 (human) = SRPK3 (human) (UniProt Q9UPE1); test: KINOMEscan competition binding; conditions: compound 10.0 µM
CLK2 (human) = CLK2 (human) (UniProt P49760); test: KINOMEscan competition binding; conditions: compound 10.0 µM
PIM2 (human) [6] = target: PIM2 (human) (UniProt Q9P1W9); test: KINOMEscan competition binding; conditions: compound 10.0 µM
PIP4K2B (human) = PIP4K2B (human) (UniProt P78356); test: KINOMEscan competition binding; conditions: compound 10.0 µM
TTK (human) = TTK (human) (UniProt P33981); test: KINOMEscan competition binding; conditions: compound 10.0 µM
TGFBR2 (human) = TGFBR2 (human) (UniProt P37173); test: KINOMEscan competition binding; conditions: compound 10.0 µM
CLK1 (human) = CLK1 (human) (UniProt P49759); test: KINOMEscan competition binding; conditions: compound 10.0 µM
MAP4K2 (human) = MAP4K2 (human) (UniProt Q12851); test: KINOMEscan competition binding; conditions: compound 10.0 µM
TAOK1 (human) = TAOK1 (human) (UniProt Q7L7X3); test: KINOMEscan competition binding; conditions: compound 10.0 µM
MYLK4 (human) = MYLK4 (human) (UniProt Q86YV6); test: KINOMEscan competition binding; conditions: compound 10.0 µM
[7] = tested on: EIF2AK4 KD2 (human), Q9P2K8 [S808G]; test: KINOMEscan competition binding; conditions: compound 10.0 µM
STK17B (human) = STK17B (human) (UniProt O94768); test: KINOMEscan competition binding; conditions: compound 10.0 µM
[8] = target: TYK2 JH2 pseudokinase (human) (UniProt P29597); test: KINOMEscan competition binding; conditions: compound 10.0 µM
DAPK2 (human) = DAPK2 (human) (UniProt Q9UIK4); test: KINOMEscan competition binding; conditions: compound 10.0 µM
MYLK (human) = MYLK (human) (UniProt Q15746); test: KINOMEscan competition binding; conditions: compound 10.0 µM
CLK4 (human) = CLK4 (human) (UniProt Q9HAZ1); test: KINOMEscan competition binding; conditions: compound 10.0 µM
PIM1 (human) [9] = target: PIM1 (human) (UniProt P11309); test: KINOMEscan competition binding; conditions: compound 10.0 µM
CSNK2A2 (human) = CSNK2A2 (human) (UniProt P19784); test: KINOMEscan competition binding; conditions: compound 10.0 µM
BMP2K (human) = BMP2K (human) (UniProt Q9NSY1); test: KINOMEscan competition binding; conditions: compound 10.0 µM
ACVR2A (human) = ACVR2A (human) (UniProt P27037); test: KINOMEscan competition binding; conditions: compound 10.0 µM
[10] = target: JAK1 JH2 pseudokinase (human) (UniProt P23458); test: KINOMEscan competition binding; conditions: compound 10.0 µM
PIP5K1A (human) = PIP5K1A (human) (UniProt Q99755); test: KINOMEscan competition binding; conditions: compound 10.0 µM
PIM3 (human) = PIM3 (human) (UniProt Q86V86); test: KINOMEscan competition binding; conditions: compound 10.0 µM
GSK3A (human) = GSK3A (human) (UniProt P49840); test: KINOMEscan competition binding; conditions: compound 10.0 µM
AAK1 (human) = AAK1 (human) (UniProt Q2M2I8); test: KINOMEscan competition binding; conditions: compound 10.0 µM
[11] = tested on: FLT3 (human), P36888 [D835H]; test: KINOMEscan competition binding; conditions: compound 10.0 µM
[12] = tested on: FLT3 (human), P36888 [N841I]; test: KINOMEscan competition binding; conditions: compound 10.0 µM
MAP3K7 (human) = MAP3K7 (human) (UniProt O43318); test: KINOMEscan competition binding; conditions: compound 10.0 µM
CDK7 (human) = CDK7 (human) (UniProt P50613); test: KINOMEscan competition binding; conditions: compound 10.0 µM

Chain of PIM2 (human) (Q9P1W9 whole entry, looked up): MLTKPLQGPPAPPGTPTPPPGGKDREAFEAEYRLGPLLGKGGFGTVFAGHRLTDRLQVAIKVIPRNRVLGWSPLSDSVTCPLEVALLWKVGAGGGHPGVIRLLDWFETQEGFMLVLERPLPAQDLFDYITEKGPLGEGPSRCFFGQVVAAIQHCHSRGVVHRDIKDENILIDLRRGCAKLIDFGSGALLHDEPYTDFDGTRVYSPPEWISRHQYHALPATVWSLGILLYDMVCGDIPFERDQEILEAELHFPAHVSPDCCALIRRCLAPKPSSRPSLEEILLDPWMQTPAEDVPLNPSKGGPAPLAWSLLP
Chain of PIM1 (human) (P11309 whole entry, looked up): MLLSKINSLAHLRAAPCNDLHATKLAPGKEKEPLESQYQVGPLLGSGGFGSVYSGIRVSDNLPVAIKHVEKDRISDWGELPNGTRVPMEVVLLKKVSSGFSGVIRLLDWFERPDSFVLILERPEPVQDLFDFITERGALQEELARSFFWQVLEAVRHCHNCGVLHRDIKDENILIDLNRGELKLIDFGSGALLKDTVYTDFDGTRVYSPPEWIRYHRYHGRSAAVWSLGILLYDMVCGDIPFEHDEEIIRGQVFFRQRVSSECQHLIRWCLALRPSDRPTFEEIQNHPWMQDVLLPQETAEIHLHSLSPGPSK
Chain of STK17B (human) (O94768 whole entry, looked up): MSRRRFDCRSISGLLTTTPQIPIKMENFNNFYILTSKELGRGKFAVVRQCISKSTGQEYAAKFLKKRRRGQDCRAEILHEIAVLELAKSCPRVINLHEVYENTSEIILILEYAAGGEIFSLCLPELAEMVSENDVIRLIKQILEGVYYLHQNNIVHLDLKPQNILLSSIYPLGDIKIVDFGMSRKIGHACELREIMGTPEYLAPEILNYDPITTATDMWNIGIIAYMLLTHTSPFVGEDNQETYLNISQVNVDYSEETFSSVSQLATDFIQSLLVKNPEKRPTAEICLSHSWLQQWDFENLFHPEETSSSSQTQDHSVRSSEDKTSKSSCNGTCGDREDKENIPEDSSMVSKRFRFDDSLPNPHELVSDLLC
Chain of ACVR2A (human) (P27037 whole entry, looked up): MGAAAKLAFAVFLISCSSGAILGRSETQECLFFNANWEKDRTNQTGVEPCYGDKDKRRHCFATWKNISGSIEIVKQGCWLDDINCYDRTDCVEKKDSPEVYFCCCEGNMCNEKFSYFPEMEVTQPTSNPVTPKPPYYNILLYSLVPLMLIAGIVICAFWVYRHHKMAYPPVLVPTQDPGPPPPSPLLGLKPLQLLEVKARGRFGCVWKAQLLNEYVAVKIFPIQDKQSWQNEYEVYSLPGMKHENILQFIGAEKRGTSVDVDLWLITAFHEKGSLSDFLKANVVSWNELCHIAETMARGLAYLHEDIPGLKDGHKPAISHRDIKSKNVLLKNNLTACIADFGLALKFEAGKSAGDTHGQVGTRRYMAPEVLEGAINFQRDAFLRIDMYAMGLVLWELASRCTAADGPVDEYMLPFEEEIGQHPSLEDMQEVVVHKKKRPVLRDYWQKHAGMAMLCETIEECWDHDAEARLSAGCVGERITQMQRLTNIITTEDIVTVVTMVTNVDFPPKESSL
Chain of JAK1 JH2 pseudokinase (human) (P23458 whole entry, looked up): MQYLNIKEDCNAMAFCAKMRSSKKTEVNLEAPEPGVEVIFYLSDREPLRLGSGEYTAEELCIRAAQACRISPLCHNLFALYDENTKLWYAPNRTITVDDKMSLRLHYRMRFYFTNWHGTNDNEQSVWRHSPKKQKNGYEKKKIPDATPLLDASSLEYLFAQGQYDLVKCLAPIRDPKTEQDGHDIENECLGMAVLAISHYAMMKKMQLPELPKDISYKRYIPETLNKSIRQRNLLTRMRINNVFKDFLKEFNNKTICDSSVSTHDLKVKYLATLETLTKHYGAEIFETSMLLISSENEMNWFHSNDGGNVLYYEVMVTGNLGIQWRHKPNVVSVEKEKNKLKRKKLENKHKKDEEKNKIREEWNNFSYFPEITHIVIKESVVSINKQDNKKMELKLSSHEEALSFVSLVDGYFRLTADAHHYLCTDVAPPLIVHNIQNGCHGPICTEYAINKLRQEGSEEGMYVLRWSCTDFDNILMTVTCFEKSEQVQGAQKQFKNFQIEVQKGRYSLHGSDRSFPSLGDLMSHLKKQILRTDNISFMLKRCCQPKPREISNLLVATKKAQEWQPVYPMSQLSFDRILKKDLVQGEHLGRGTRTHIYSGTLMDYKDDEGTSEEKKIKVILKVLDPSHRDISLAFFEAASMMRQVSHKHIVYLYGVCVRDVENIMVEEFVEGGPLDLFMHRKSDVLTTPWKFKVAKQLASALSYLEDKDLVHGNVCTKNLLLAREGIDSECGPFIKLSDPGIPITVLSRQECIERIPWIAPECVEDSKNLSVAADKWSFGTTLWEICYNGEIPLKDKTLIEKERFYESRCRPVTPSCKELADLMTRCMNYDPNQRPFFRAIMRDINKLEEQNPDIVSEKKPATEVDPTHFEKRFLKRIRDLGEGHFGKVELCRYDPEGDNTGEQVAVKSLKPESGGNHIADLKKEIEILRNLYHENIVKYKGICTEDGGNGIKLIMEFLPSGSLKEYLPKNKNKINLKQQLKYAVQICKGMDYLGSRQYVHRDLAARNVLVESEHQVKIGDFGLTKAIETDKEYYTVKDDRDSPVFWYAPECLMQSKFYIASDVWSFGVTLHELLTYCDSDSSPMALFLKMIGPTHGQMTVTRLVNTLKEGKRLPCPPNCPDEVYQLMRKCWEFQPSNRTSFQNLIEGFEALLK
Chain of EIF2AK4 KD2 (human), Q9P2K8 [S808G] (Q9P2K8 whole entry S808G, looked up): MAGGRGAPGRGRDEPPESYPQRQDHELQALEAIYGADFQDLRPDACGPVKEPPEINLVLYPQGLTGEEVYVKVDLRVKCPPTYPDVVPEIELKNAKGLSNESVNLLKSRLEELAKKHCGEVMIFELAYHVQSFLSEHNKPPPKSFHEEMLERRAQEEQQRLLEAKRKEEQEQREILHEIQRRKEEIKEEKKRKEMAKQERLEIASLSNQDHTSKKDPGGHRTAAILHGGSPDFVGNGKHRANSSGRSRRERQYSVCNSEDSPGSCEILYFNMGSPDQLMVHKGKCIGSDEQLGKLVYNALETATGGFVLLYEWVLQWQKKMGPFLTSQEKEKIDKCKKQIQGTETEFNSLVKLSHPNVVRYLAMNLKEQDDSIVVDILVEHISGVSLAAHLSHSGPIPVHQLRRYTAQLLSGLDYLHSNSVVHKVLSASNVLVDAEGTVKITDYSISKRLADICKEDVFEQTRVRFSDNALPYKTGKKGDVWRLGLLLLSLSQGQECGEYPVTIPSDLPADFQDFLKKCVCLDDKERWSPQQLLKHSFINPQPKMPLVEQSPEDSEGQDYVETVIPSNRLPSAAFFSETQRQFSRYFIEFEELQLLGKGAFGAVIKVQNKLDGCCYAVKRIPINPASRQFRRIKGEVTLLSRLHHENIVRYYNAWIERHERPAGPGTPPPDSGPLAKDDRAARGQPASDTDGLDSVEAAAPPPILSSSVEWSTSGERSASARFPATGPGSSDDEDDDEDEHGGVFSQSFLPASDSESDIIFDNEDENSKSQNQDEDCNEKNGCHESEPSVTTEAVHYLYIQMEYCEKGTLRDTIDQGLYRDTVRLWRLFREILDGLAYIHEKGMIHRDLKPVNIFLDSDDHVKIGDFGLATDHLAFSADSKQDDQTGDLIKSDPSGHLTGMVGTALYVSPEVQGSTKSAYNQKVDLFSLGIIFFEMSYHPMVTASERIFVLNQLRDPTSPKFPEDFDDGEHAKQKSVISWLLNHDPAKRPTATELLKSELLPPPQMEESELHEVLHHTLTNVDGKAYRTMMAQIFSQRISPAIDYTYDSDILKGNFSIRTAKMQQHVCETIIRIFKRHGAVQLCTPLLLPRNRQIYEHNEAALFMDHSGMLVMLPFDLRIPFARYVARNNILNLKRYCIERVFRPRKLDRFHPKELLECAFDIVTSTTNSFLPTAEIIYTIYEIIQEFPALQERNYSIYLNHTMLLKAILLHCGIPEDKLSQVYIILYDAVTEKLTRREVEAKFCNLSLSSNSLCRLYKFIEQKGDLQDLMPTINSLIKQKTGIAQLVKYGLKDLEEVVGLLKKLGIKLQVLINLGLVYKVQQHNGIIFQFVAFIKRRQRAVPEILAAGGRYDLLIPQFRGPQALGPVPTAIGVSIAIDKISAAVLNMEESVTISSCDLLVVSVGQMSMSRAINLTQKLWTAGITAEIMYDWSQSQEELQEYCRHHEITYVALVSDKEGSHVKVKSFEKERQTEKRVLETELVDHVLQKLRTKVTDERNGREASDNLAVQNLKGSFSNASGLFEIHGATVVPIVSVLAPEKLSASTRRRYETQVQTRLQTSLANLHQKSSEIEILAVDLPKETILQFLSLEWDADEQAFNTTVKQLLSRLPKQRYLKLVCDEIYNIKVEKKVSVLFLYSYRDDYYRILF
Chain of CAMKK1 (human) (Q8N5S9 whole entry, looked up): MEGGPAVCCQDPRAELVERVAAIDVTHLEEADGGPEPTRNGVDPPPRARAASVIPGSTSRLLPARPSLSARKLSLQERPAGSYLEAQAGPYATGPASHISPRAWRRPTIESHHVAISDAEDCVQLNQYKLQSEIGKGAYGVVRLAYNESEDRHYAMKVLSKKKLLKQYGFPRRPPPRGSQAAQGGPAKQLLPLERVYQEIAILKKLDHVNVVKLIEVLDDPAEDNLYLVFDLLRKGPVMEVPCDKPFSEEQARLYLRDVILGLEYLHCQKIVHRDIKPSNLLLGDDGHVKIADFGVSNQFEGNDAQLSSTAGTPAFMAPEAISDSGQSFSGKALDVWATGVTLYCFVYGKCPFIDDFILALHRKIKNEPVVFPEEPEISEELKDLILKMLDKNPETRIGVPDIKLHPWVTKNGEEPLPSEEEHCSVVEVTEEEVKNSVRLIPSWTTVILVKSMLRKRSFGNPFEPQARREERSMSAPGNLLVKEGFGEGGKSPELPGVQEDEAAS

IC50 (PIM2 (human) [1]): 0.504 µM | IC50 (PIM1 (human) [2]): > 1.11 µM | kinase still bound, per cent of control (DAPK1 (human)): 22% | kinase still bound, per cent of control [3]: 10% | kinase still bound, per cent of control (CAMKK1 (human)): 27% | kinase still bound, per cent of control (STK17A (human)): 0.55% | kinase still bound, per cent of control (RIOK2 (human)): 9.2% | kinase still bound, per cent of control (RIPK2 (human)): 25% | kinase still bound, per cent of control (IRAK3 (human)): 24% | kinase still bound, per cent of control (PLK3 (human)): 29% | kinase still bound, per cent of control (ACVR2B (human)): 21% | kinase still bound, per cent of control (GAK (human)): 2.6% | kinase still bound, per cent of control (MINK1 (human)): 16% | kinase still bound, per cent of control (MAP2K4 (human)): 33% | kinase still bound, per cent of control [4]: 22% | kinase still bound, per cent of control [5]: 8.4% | kinase still bound, per cent of control (HIPK1 (human)): 0.1% | kinase still bound, per cent of control (RIOK1 (human)): 15% | kinase still bound, per cent of control (SRPK3 (human)): 22% | kinase still bound, per cent of control (CLK2 (human)): 9.8% | kinase still bound, per cent of control (PIM2 (human) [6]): 1.4% | kinase still bound, per cent of control (PIP4K2B (human)): 20% | kinase still bound, per cent of control (TTK (human)): 25% | kinase still bound, per cent of control (TGFBR2 (human)): 9.2% | kinase still bound, per cent of control (CLK1 (human)): 15% | kinase still bound, per cent of control (MAP4K2 (human)): 20% | kinase still bound, per cent of control (TAOK1 (human)): 34% | kinase still bound, per cent of control (MYLK4 (human)): 13% | kinase still bound, per cent of control [7]: 26% | kinase still bound, per cent of control (STK17B (human)): 2.3% | kinase still bound, per cent of control [8]: 1.1% | kinase still bound, per cent of control (DAPK2 (human)): 30% | kinase still bound, per cent of control (MYLK (human)): 24% | kinase still bound, per cent of control (CLK4 (human)): 20% | kinase still bound, per cent of control (PIM1 (human) [9]): 8.3% | kinase still bound, per cent of control (CSNK2A2 (human)): 5.5% | kinase still bound, per cent of control (BMP2K (human)): 8% | kinase still bound, per cent of control (ACVR2A (human)): 34% | kinase still bound, per cent of control [10]: 20% | kinase still bound, per cent of control (PIP5K1A (human)): 19% | kinase still bound, per cent of control (PIM3 (human)): 3.2% | kinase still bound, per cent of control (GSK3A (human)): 17% | kinase still bound, per cent of control (AAK1 (human)): 6.3% | kinase still bound, per cent of control [11]: 18% | kinase still bound, per cent of control [12]: 29% | kinase still bound, per cent of control (MAP3K7 (human)): 12% | kinase still bound, per cent of control (CDK7 (human)): 5.8%
SMILES: N=C1NC(=O)/C(=C/c2ccc(-c3cnc4ccccc4c3)o2)S1
